Series [1] concerns the target T1, human P-gp with 1236T-2677T-3435T genotype (Homo sapiens, UniProt P08183).
Method: (§1) For efflux assays, 1×10^5 cells were seeded on 96-well plates and cultured for 24 hours. […] After washed with warm PBS, cells were allowed to efflux rhodamine123 for 10 min at 37°C in the incubator. Samples (150 µl) were collected and transferred to 96-well black plates. Rhodamine123 concentrations were measured using a set of standards (from 62.5 nM to 8 µM) in HBSS analyzed by the SpectraMax Gemini XS microplate spectrofluorometer (Molecular Devices Co., Sunnyvale, CA, USA) with the excitation set at 485 nm and the emission set at 535 nm. The measured rhodamine123 concentrations were normalized to the total protein content in the cells. Total protein concentrations were measured by a microplate assay protocol (Dc protein assay reagent, Bio-Rad, Hercules, CA, USA), and bovine serum albumin was used as the standard. Each experiment was repeated at least three times across cell passages to ensure stability of transfection and consistency and reproducibility of the experiments.
(§2) For kinetic studies, kinetic parameters were estimated by nonlinear regression using Scientist v2.01 (MicroMath Scientific Software, Salt Lake City, UT, U.S.A.) according to the following equation: [drawing 6] Where V denoted the efflux rate; Vmax, the maximal efflux rate; Km, the Michaelis-Menten constant and C is the substrate concentration.
Series [2] has as its target T2, human wild-type P-gp (ABCB1 1236C-2677G-3435C) (Homo sapiens, UniProt P08183, S893A). The series is described as follows: in vitro.
Method: as §1, §2
For series [3], the target named is T3, human P-gp with 1236T-2677A-3435T genotype (Homo sapiens, UniProt P08183, S893T).
Method: as §1, §2
Series [4] has as its target T2, human wild-type P-gp (ABCB1 1236C-2677G-3435C).
Method: as §1, §2
Series [5] deals with T3, human P-gp with 1236T-2677A-3435T genotype. Put plainly: in vitro.
Method: as §1, §2
In series [6] the target is T1, human P-gp with 1236T-2677T-3435T genotype. Put plainly: in vitro.
Method: as §1, §2
For the next series, the system named is Flp-In™-293 cells. Put plainly: Cytotoxicity assay (MTT). The series is classed as cell-based, human. Conditions: methadone 0.5 to 40 µM; 48 hours. The procedure: Briefly, the cells were seeded into 24-well plates and cultured overnight. […] After incubation, the medium was removed and added fresh culture medium 200 µl containing 0.5 mg/ml MTT and then incubated at 37°C for 4 hours. After incubation, the medium was removed and 200 µl DMSO was added, and incubation for 30 minutes at room temperature. After incubation, 100 µl of solution was transferred to a 96-well plate and absorbance was measured using an ELISA plate reader (Molecular Devices, Sunnyvale, USA) at 570 nm with a reference wavelength of 650 nm.

Series [7] deals with T1, human P-gp with 1236T-2677T-3435T genotype. Put plainly: cell-based.
Method: as §1, §2
The target of series [8] is T3, human P-gp with 1236T-2677A-3435T genotype. The series is described as follows: cell-based.
Method: as §1, §2
For series [9] the following is noted: cited from earlier work.
The target of series [10] is T2, human wild-type P-gp (ABCB1 1236C-2677G-3435C). The series is described as follows: cell-based.
Method: as §1, §2

T1 sequence (P08183 whole entry): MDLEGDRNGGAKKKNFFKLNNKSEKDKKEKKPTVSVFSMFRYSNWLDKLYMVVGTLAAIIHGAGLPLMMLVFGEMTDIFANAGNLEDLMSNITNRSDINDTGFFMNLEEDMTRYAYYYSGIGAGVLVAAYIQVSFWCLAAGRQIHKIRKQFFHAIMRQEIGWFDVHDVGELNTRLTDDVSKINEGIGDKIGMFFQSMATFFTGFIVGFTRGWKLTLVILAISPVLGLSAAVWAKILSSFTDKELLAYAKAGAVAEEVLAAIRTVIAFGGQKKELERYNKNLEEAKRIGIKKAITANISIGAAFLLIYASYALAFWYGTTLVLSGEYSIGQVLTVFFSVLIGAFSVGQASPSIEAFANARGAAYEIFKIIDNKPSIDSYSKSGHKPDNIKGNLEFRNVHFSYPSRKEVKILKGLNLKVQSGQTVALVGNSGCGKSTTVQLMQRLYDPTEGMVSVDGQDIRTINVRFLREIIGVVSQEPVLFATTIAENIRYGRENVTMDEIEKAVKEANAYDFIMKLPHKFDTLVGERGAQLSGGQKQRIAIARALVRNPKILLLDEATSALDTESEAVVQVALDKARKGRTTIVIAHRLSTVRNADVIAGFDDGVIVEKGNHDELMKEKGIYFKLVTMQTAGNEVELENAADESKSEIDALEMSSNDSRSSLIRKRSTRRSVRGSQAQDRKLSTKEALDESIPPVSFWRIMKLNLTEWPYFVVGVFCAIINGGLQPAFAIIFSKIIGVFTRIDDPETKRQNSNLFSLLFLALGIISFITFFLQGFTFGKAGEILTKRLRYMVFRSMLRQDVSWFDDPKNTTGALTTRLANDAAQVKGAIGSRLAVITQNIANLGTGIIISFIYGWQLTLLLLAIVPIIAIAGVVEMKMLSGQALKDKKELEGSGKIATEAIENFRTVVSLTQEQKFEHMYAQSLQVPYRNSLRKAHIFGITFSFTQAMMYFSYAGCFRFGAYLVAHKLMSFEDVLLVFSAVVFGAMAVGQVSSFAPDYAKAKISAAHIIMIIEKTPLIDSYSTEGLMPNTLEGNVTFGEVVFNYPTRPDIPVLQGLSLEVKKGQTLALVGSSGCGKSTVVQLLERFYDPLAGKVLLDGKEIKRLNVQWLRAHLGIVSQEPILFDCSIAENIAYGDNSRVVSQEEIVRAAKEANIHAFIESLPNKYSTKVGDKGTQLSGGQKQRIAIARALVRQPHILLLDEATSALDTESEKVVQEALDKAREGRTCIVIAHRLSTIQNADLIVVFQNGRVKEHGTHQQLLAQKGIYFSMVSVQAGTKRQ
T2 sequence (P08183 whole entry S893A): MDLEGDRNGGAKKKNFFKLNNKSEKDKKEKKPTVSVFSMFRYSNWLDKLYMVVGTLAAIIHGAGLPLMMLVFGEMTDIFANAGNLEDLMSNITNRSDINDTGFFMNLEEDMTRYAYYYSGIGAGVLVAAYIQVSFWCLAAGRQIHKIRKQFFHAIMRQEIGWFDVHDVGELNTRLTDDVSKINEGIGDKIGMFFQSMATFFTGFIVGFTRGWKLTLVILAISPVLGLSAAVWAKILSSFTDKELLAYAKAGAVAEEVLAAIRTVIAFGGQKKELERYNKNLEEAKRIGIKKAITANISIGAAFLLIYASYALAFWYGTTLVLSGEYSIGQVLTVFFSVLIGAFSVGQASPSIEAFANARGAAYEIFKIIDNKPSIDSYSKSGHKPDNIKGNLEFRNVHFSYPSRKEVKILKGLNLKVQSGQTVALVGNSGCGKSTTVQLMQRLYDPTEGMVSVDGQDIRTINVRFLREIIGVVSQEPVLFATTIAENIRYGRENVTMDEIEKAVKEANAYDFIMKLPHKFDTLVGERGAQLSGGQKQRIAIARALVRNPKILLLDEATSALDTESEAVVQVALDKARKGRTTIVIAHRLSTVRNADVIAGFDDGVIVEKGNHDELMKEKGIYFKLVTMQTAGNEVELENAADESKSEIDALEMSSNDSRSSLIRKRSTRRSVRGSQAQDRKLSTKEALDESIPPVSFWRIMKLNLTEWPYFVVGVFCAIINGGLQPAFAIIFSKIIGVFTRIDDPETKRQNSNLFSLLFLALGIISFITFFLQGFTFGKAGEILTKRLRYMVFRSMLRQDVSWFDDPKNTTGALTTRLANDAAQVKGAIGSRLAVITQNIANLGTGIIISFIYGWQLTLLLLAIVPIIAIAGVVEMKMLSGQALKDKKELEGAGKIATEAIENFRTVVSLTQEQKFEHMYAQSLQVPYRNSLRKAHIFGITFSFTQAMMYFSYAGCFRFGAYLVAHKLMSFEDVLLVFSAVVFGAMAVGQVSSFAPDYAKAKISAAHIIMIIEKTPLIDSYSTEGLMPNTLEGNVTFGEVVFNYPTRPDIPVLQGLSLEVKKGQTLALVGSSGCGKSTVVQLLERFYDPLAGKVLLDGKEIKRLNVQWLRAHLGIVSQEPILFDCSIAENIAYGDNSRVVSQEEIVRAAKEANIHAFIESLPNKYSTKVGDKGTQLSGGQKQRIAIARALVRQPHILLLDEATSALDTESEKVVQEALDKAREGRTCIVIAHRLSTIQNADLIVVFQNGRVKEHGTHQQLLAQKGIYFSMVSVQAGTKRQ
T3 sequence (P08183 whole entry S893T): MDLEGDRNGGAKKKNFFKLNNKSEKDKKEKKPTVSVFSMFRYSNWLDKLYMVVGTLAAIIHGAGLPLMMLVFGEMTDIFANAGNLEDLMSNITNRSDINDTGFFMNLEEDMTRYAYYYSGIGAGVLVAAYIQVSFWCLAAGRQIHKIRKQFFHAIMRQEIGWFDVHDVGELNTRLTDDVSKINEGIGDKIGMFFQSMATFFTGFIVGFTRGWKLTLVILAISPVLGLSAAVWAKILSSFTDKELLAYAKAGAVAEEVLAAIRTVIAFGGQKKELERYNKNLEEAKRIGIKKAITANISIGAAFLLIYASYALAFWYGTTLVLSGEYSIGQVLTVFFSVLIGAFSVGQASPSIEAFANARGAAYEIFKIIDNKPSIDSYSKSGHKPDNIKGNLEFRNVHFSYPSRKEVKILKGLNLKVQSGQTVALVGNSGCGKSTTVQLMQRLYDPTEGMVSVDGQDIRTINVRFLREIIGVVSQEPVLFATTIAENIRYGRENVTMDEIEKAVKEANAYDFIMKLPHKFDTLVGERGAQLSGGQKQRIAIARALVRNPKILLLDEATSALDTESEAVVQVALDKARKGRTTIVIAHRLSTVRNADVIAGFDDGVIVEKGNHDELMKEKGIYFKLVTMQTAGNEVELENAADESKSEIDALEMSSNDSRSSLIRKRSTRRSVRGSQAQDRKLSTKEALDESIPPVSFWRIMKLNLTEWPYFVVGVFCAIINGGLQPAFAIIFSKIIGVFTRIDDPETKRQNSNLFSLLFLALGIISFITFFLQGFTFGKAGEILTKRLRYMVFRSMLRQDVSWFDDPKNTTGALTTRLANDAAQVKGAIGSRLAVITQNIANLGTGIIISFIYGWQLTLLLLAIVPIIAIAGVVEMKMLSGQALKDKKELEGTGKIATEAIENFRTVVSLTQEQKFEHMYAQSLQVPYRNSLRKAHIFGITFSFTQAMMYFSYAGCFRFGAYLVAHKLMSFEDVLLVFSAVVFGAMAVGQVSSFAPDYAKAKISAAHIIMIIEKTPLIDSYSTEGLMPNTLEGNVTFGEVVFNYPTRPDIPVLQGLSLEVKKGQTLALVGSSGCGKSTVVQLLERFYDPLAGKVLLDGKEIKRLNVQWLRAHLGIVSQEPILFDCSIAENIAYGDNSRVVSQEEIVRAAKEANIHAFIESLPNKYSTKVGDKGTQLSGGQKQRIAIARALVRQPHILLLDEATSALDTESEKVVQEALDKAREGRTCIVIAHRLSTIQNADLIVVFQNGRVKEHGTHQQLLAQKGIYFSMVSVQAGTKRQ

As to `COC(=O)c1ccccc1-c1c2ccc(=N)cc-2oc2cc(N)ccc12` [Rhodamine 123], the figures for the “Vmax of rhodamine 123 efflux” value in series [1] and in series [3] were 8.29±0.89 nmole/mg protein/10 min and 7.34±0.63 nmole/mg protein/10 min, respectively. Further, the Km at 10 min was determined as 16.6 ± 3.01 µM in series [2], 14.8 ± 1.72 µM in series [5] and 18.8 ± 2 µM in series [6]. For the same compound, the “non-specific first-order rate constant of rhodamine 123 efflux” value in series [4] is given as 12.08±1.23 µL/mg protein/10 min. For the same compound, in [4], the “non-specific transport as share of the total efflux” value is 2.9%.
In the case of `CCC(=O)C(CC(C)N(C)C)(c1ccccc1)c1ccccc1` (stereo not drawn) [methadone], in the series with Flp-In™-293 cells, the “cell viability (MTT assay)” value is on record as “did not affect”. In addition, the figures for the IC50 in [7], in [8] and in series [10] were 2.97 ± 0.09 µM, 4.43 ± 1.1 µM and 2.17 ± 0.1 µM, respectively. Further, the Ki worked out at 3.92 ± 0.07 µM in [7], 4.53 ± 1.17 µM in [8] and 2.77 ± 0.15 µM in [10]. The therapeutic range in [9] was 1 to 3 µM.

The values above are taken from PMC3602015 (PLoS ONE, 2013).
